Patent US6441134B1, “Isolated Candida albicans oligopeptide transporter gene” (The University of Tennessee Research Corporation, dated 2002)
Non-standard residues stand in square brackets, D forms with d. No end group written: not given here.

Key:
Format in all cases: cell-based, Saccharomyces cerevisiae
[1] = test system: S. cerevisiae PB1X-9B(pOPT1); conditions: ammonium sulfate as nitrogen source; 0.38 μmoles per 6 mm disk; 24-48 hr
Procedure: (§1) S. cerevisiae PB1X-9B is sensitive to the toxic amino acid ethionine Eth) but is resistant to ethionine containing di-, tri-, tetra-, and pentapeptides. Disk sensitivity assays was utilized to determine if cells transformed with pOPT1 were sensitive to toxic peptides and whether this sensitivity was dependent upon nitrogen source.
(§2) Sensitivity to ethionine, a toxic methionine analog, and ethionine-containing peptides was determined by the method described by Island et al. (1987). Cells were grown overnight to exponential phase of growth in SC, washed, and resuspended at 5×10^6 cells /ml in sterile water. One ml of this cell suspension was added to 3 ml molten Noble agar (0.8% final concentration) and overlayed on 20 ml of the same medium used to prepare the inoculum. A disk (6 mm diameter, Difco) was placed on the plate and 0.38 μmoles of the compounds to be tested were applied to the disks. Zones of inhibition were measured after 24-48 hr incubation at 30 iC. Each test comprised at least three independent assays and the results represented in the Tables are means of the values obtained. Maximum variation between the zones of inhibition measured for each test were ^23 mm. A value of 7 mm for the diameter of zone of inhibition represents a minimal growth inhibition value as the disk diameter was 6 mm. Photodocumentation of sensitivity assays was done with a Umax Scanner and processed through Adobe Photoshop.

[2] = test system: S. cerevisiae PB1X-9B; experiment: Sensitivity of untransformed S. cerevisiae PB1X-9B to ethionine and ethionine peptides
Procedure: as §1
as §2, with “Photodocumentation of sensitivity assays was done with a Umax Scanner and processed through Adobe Photoshop.” left out

[3] = test system: S. cerevisiae PB1X-9B(pOPT1); experiment: Peptide transport assay, accumulation of KLG-[3H]L, PB1X-9B(pOPT1)
Procedure: (§3) To determine if S. cerevisiae transformants harboring pOPT1 could accumulate a radiolabeled tetrapeptide, uptake assays were performed with the radiolabeled substrate KLG-[^3H]L SEQ ID NO:7 with cells grown to log phase in SC-Ura with either ammonium sulfate or 0.1% proline as a nitrogen source. […] This higher initial rate can be explained by overexpression due to high copy number or alternatively by the lack of requisite regulatory elements which may be absent in the heterologous host.
Uptake of KLG-[^3H]L SEQ ID NO:7 was determined using a protocol for uptake of dipeptides as described by Basrai et al. (1995) with a few modifications. S. cerevisiae cultures were grown overnight to exponential phase in SC-Ura medium. Cells were harvested by centrifugation, and resuspended in 2% glucose at a cell density of 2×10^8 cells/ml. Two hundred and fifty microliters of cell suspension were added to an equal volume of an uptake assay reaction mixture and incubated at 30iC. The final concentrations of the components in the uptake assay solution were: glucose (2%, w/v), 10 mM sodium citrate/potassium phosphate buffer (pH 5.0), and KLG-[^3H]L SEQ ID NO:7 (150 μM; 8.5 mCi/mmol). Competition experiments were done in the presence of either 1.5 mM L, KL, KLG, KLLG SEQ ID NO:6, or KLLLG SEQ ID NO:8. At various time points, 90 μl portions were removed and filtered through a membrane. The yeast cells retained on the filter were washed twice with ice-cold distilled water, once with room temperature distilled water, and the residual radioactivity was measured by liquid scintillation. There was no peptide adsorption to the cell surface or sticking to filters since at 0i C the counts were at background level. The uptake results, calculated on the basis of 50% counting efficiency (determined using L-[^3H]lysine as a standard, and the specific activity of the peptide), were expressed as nmol of peptide uptake per minute per mg cell dry weight.

[4] = test system: S. cerevisiae PB1X-9B(pRS202); experiment: Peptide transport assay, accumulation of KLG-[3H]L, PB1X-9B(pRS202); conditions: cells grown in SC with ammonium sulfate; 150 μM substrate
Procedure: as §3
Uptake of KLG-[^3H]L SEQ ID NO:7 was determined using a protocol for uptake of dipeptides as described by Basrai et al. (1995) with a few modifications. S. cerevisiae cultures were grown overnight to exponential phase in SC-Ura medium. Cells were harvested by centrifugation, and resuspended in 2% glucose at a cell density of 2×10^8 cells/ml. […] The yeast cells retained on the filter were washed twice with ice-cold distilled water, once with room temperature distilled water, and the residual radioactivity was measured by liquid scintillation. […] The uptake results, calculated on the basis of 50% counting efficiency (determined using L-[^3H]lysine as a standard, and the specific activity of the peptide), were expressed as nmol of peptide uptake per minute per mg cell dry weight.

Compound	zone of growth inhibition [1] [mm]	sensitivity / resistance of the strain [2]	uptake rate of KLG-[3H]L, no competitor ([3]; SC-Ura with ammonium sulfate, 150 μM substrate, best fit of slope over 12 min)	initial rate of uptake compared to C. albicans SC5314 ([3]; both grown in SC with ammonium sulfate)	uptake rate of radiolabeled tetrapeptide ([3]; cells grown in SC with ammonium sulfate, 150 μM substrate)	initial uptake rate, PB1X-9B(pOPT1) relative to PB1X-9B(pRS202) ([3]; growth media with proline as nitrogen source) [times]	uptake of radiolabeled tetrapeptide [4]
CCSCC[C@H](N)C(=O)O [ethionine, Ethionine]	33	sensitive	–	–	–	–	–
Lys-Leu-Gly-[^3H]Leu (KLG[3H‑Leu]) [KLG-[^3H]L]	–	–	0.24 nm/min/mg of dry weight	higher initial rate of uptake	significant uptake rate	2.5	no uptake
